Some test systems named below: DMS-114; RXF 631; M19-MEL; SNB-78; KM-20L2; XF498; DLD-1; LXFL 529; HOP-18.
What all share (test): growth of human tumour cells (NCI), 48 h

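Grown in 96-well plates, cells were treated for 48 hours with each compound at five concentrations. Insufficient inhibition: endpoint recorded as highest concentration tested. At the GI50, growth is halved.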 Activity calls are given as the source filed them. No stated cut-off is given here; in the data, active = GI50 up to about 1.1 µM and inactive = higher.

As for `O=C1c2ccccc2-c2cccc3ccc(Cc4ccccc4)c1c23`, the GI50 in the experiment with DMS-114, with RXF 631, with M19-MEL, with SNB-78, with KM-20L2 and with XF498 was > 100 µM (inactive) throughout. The GI50 in the experiment on DLD-1 and in the experiment on LXFL 529 was > 100 µM (inactive) in each case.
`CCCN1C(=O)C/C(=C\C(C)=O)Nc2ccccc21`: the GI50 with DMS-114 is 71.4 µM (inactive); in the experiment with M19-MEL it was > 100 µM (inactive); in the experiment on SNB-78, 80.2 µM (inactive); in the experiment on XF498, > 100 µM (inactive); in the experiment on DLD-1, > 100 µM (inactive); in the experiment on LXFL 529, > 100 µM (inactive).
In the case of `Cc1ccc(S(=O)(=O)SC(C)(C)C)cc1`, the GI50 in the experiment with DMS-114 was 16.9 µM (inactive); in the experiment with HOP-18, > 100 µM (inactive); in the experiment with RXF 631 it was > 100 µM (inactive); in the experiment on M19-MEL, 33.8 µM (inactive); in the experiment with SNB-78, 51.2 µM (inactive); in the experiment on XF498, 15.6 µM (inactive). The GI50 in the experiment on DLD-1 is 18.5 µM (inactive); with LXFL 529 it was 32.7 µM (inactive).
On to `O=S(=O)(c1ccccc1)n1cnc(CCc2ccccc2)n1`, for which the GI50 in the experiment with DMS-114, in the experiment on HOP-18, in the experiment with M19-MEL, with SNB-78, with KM-20L2 and with DLD-1 was > 100 µM (inactive) each time. In addition, the GI50 in the experiment with LXFL 529 is > 100 µM (inactive).
Consider `N#C/N=C1\NCCC(=O)N1CCc1c[nH]c2ccccc12`, for which the GI50 in the experiment with DMS-114, in the experiment with M19-MEL, in the experiment with SNB-78, in the experiment on XF498, in the experiment with DLD-1 and with LXFL 529 was > 100 µM (inactive) in each case.
With `CCc1cccc(C)c1NC(=O)CC1C(=O)Nc2ccccc2[S+]1[O-]` (stereo not drawn), the GI50 in the experiment with SNB-78 was 45.2 µM (inactive); with KM-20L2, 30.5 µM (inactive); with XF498, 46.5 µM (inactive); with DLD-1 it was 47.6 µM (inactive); in the experiment with LXFL 529, 66.1 µM (inactive).
On to `CN(C)CCC(/C=C/c1ccccc1)=N\Nc1ccc(Cl)cc1`, for which the GI50 with DMS-114 is 2.4 µM (inactive); with HOP-18, 4.69 µM (inactive); in the experiment with M19-MEL, 6.78 µM (inactive); in the experiment on SNB-78, 6.07 µM (inactive); with KM-20L2, 1.56 µM (inactive); with DLD-1 it was 2.88 µM (inactive). Besides, the GI50 in the experiment on LXFL 529 is 2.84 µM (inactive).
For the molecule `O=C1/C(=N\O)S(=O)(=O)c2ccccc21`, the GI50 is > 100 µM (inactive) in the experiment on DMS-114; > 100 µM (inactive) in the experiment on HOP-18; > 100 µM (inactive) in the experiment with RXF 631; > 100 µM (inactive) with M19-MEL; > 100 µM (inactive) with SNB-78; 59.2 µM (inactive) in the experiment with KM-20L2. For the same molecule, the GI50 in the experiment on DLD-1 and with LXFL 529 was > 100 µM (inactive) in each case.
As for `N=C(N)NS(=O)(=O)c1ccc(Nc2c3ccccc3nc3c(C(=O)Nc4ccc(S(N)(=O)=O)cc4)cccc23)cc1`, the GI50 in the experiment with DMS-114 is 45 µM (inactive); with HOP-18, > 100 µM (inactive); with M19-MEL it was > 100 µM (inactive); with SNB-78, 76.4 µM (inactive); in the experiment on KM-20L2, > 100 µM (inactive); in the experiment on XF498, 25.3 µM (inactive). Moreover, the GI50 in the experiment on DLD-1 was > 100 µM (inactive); with LXFL 529, 26.8 µM (inactive).
For `COc1ccc2c(c1)OCCCN(C)OC2c1ccccc1` (stereo not drawn), the GI50 in the experiment with DMS-114, in the experiment with M19-MEL, in the experiment on SNB-78, in the experiment with KM-20L2 and in the experiment with LXFL 529 was > 100 µM (inactive) each time.
With `O=C(c1ccccc1)c1c(-c2ccccc2)sc2nc3ccccc3nc12`, the GI50 is > 100 µM (inactive) with DMS-114; > 100 µM (inactive) with M19-MEL; 74 µM (inactive) with SNB-78; > 100 µM (inactive) in the experiment with KM-20L2; > 100 µM (inactive) with XF498.
Consider `COC1=CC(=O)c2c(cc3c(c2O)-c2c(OC)cc4cc5c(c(O)c4c2OC(=O)CC(C)(O)C3)C(=O)CC(C)(O)C5)C1=O` (stereo not drawn), for which the GI50 in the experiment with DMS-114 is 1.69 µM (inactive); in the experiment with HOP-18 it was 1.3 µM (inactive); in the experiment on M19-MEL, 0.379 µM (active); in the experiment with SNB-78 it was 1.85 µM (inactive); in the experiment on KM-20L2, 1.63 µM (inactive); in the experiment with XF498 it was 1.37 µM (inactive). Besides, the GI50 was 2.63 µM (inactive) in the experiment on DLD-1 and 1.16 µM (inactive) in the experiment with LXFL 529.
With `Cc1cc(=O)cc2sc3cc(Cl)ccc3nc1-2`, the GI50 in the experiment with HOP-18 was 48.1 µM (inactive); in the experiment with M19-MEL it was 16.3 µM (inactive); in the experiment with SNB-78, 17 µM (inactive); with KM-20L2, 17.4 µM (inactive); in the experiment on XF498 it was 4.28 µM (inactive); with DLD-1, 6.49 µM (inactive). Further, in the experiment on LXFL 529, the GI50 is 15.2 µM (inactive).
As for `Cc1ccc(C(=O)/C=C/c2cccc([N+](=O)[O-])c2)cc1`, the GI50 is 46.5 µM (inactive) in the experiment with DMS-114; > 100 µM (inactive) in the experiment on HOP-18; > 73.8 µM (inactive) in the experiment with RXF 631; > 44.6 µM (inactive) with M19-MEL; > 100 µM (inactive) with SNB-78; 36.6 µM (inactive) in the experiment on KM-20L2. The GI50 in the experiment on DLD-1 was 44 µM (inactive); in the experiment on LXFL 529, 37.8 µM (inactive).
Regarding `Cc1cc([N+](=O)[O-])ccc1Nc1cccc(Cl)c1C`, the GI50 in the experiment on DMS-114 is 13.5 µM (inactive); with HOP-18 it was 14 µM (inactive); in the experiment with RXF 631, 16.2 µM (inactive); with M19-MEL, 16.5 µM (inactive); with KM-20L2, 14 µM (inactive); with DLD-1, 14.6 µM (inactive). In addition, in the experiment on LXFL 529, the GI50 is 14.4 µM (inactive).
`CC1=Nc2c(O)nc(S)nc2NC(c2c(Cl)cccc2Cl)C1` (stereo not drawn): the GI50 is 3.05 µM (inactive) with DMS-114; 15.2 µM (inactive) in the experiment on HOP-18; 5.75 µM (inactive) in the experiment with RXF 631; 1.48 µM (inactive) with M19-MEL; 4.43 µM (inactive) in the experiment with SNB-78; 4.23 µM (inactive) with KM-20L2. For the same molecule, the GI50 is 3.1 µM (inactive) in the experiment with XF498, 2.42 µM (inactive) in the experiment with DLD-1 and 2.96 µM (inactive) in the experiment on LXFL 529.
Consider `O=C(c1ccccc1)c1oc2ccc(Br)cc2c1-c1cnn(-c2ccccc2)c1`, for which the GI50 in the experiment with DMS-114, with M19-MEL, in the experiment on SNB-78, with KM-20L2, in the experiment with XF498 and in the experiment with DLD-1 was > 100 µM (inactive) in each case. Besides, the GI50 in the experiment on LXFL 529 is > 100 µM (inactive).
Consider `ClCCCCOC1CCCCO1` (stereo not drawn), for which the GI50 in the experiment with DMS-114, with HOP-18, in the experiment on M19-MEL, in the experiment on SNB-78, with KM-20L2 and in the experiment on XF498 was > 100 µM (inactive) in each case. The GI50 in the experiment on DLD-1 and in the experiment with LXFL 529 was > 100 µM (inactive) in each case.
In the case of `COC(=O)C(=O)C(C#N)c1c(Cl)cccc1Cl` (stereo not drawn), the GI50 with DMS-114, with RXF 631, with M19-MEL, in the experiment with SNB-78, with KM-20L2 and with XF498 was > 100 µM (inactive) in each case. The GI50 in the experiment with DLD-1 and in the experiment with LXFL 529 was > 100 µM (inactive) in each case.
On to `C=C1C(C)C2C(Cc3ccccc3)NC(=O)C23C(OC(C)=O)/C=C/C(C)(O)CC(C)C/C=C/C3C1O` (stereo not drawn), for which the GI50 in the experiment on DMS-114 is 8.57 µM (inactive); in the experiment on HOP-18 it was 0.0324 µM (active); in the experiment on M19-MEL, 49.1 µM (inactive); in the experiment on SNB-78, 0.0454 µM (active); with KM-20L2, 0.112 µM (active); in the experiment on XF498, 0.973 µM (active). The GI50 in the experiment on DLD-1 is 0.0796 µM (active).
Take `O=C1C2Cc3ccccc3CN2C(=O)N1CCN1CCOCC1` (stereo not drawn): the GI50 with DMS-114, with RXF 631, in the experiment with M19-MEL, with KM-20L2, in the experiment on DLD-1 and in the experiment on LXFL 529 was > 100 µM (inactive) in each case.
Regarding `COC(=O)C1C=CCON2CCc3c(n(C)c4ccccc34)C12` (stereo not drawn), the GI50 in the experiment on DMS-114 was > 100 µM (inactive); in the experiment with RXF 631 it was > 100 µM (inactive); in the experiment on M19-MEL it was > 100 µM (inactive); in the experiment on SNB-78, > 100 µM (inactive); in the experiment on KM-20L2 it was > 100 µM (inactive); with XF498, 42.1 µM (inactive). Moreover, the GI50 with DLD-1 and with LXFL 529 was > 100 µM (inactive) throughout.
With `CN(C)CCCCC1CCN(CC(=O)N2c3ccccc3NC(=O)c3ccccc32)CC1`, the GI50 with DMS-114, in the experiment with RXF 631, in the experiment on M19-MEL, in the experiment with SNB-78, with XF498 and in the experiment on DLD-1 was > 100 µM (inactive) throughout. Also, the GI50 in the experiment on LXFL 529 was > 100 µM (inactive).

These data come from ChEMBL document CHEMBL1201862, “PubChem BioAssay data set” (2004).
